Measurements as given in publication PMC12386809, “Phenanthrene Monomers and Dimers from Juncus tenuis with Antiproliferative Activity and Synergistic Effect with Doxorubicin Against Human Colon Cancer Cell Lines” (International Journal of Molecular Sciences, 2025).
Like-named read-outs stand apart in the source and are kept apart here.

Columns and labels:
[1] = tested on: COLO 205 (doxorubicin-sensitive) human colonic adenocarcinoma cells; assay: MTT antiproliferative assay, COLO 205; format: cell-based; details: read-out: IC50 (µM) ± SD COLO 205
Protocol: (§1) The antiproliferative effects of the isolated phenanthrenes (compounds 1–19) were evaluated using human cancer cell lines, including doxorubicin-sensitive colonic adenocarcinoma COLO 205 and multidrug-resistant colonic adenocarcinoma COLO 320/MDR-LRP (which expresses P-glycoprotein [MDR1] and LRP), as well as non-cancerous human lung fibroblast CCD-19Lu cells. CCD-19Lu was chosen because it is a well-characterized, non-tumorigenic cell line commonly used to assess general cytotoxicity. Moreover, data from the literature support the use of lung fibroblast cell lines—including CCD-19Lu—as normal controls in studies involving colon cancer cells such as Colo 205 and Colo 320 [33]. The thiazolyl blue tetrazolium bromide (MTT) assay was employed to determine the concentration of each compound required to inhibit 50% of the cell viability (IC50), as summarized in Table 3.
(§2) The human colon adenocarcinoma cells—COLO 205 (CCL-222, doxorubicin-sensitive) and COLO 320/MDR-LRP (ATCC-CCL-220.1, multidrug-resistant, expressing P-gp)—were cultured in RPMI 1640 medium supplemented with 10% heat-inactivated fetal bovine serum, 2 mM of L-glutamine, 1 mM of sodium pyruvate, and 100 mM of HEPES. The non-cancerous human lung fibroblast cell line CCD-19Lu was maintained in Eagle’s Minimal Essential Medium (EMEM; containing 4.5 g/L of glucose) supplemented with a non-essential amino acid mixture, selected vitamins, and 10% heat-inactivated fetal bovine serum. All of the cell lines were detached using 0.25% trypsin and 0.02% EDTA for 5 min at 37 °C. The cell lines were obtained from LGC Promochem (Teddington, England).
(§3) Human colonic adenocarcinoma cell lines—doxorubicin-sensitive COLO 205 and multidrug-resistant COLO 320—as well as the non-cancerous human lung fibroblast cell line CCD-19Lu were used to evaluate the effects of the test compounds on cell proliferation. The assays were conducted in 96-well flat-bottomed microtiter plates. Stock solutions of the compounds were prepared in dimethyl sulfoxide (DMSO), with the final DMSO concentration kept below 1% in all samples. The compounds were diluted in 100 µL of the appropriate culture medium. Adherent cells were cultured in EMEM supplemented with 10% heat-inactivated fetal bovine serum and seeded into 96-well plates at a density of 6 × 10^3 cells per 100 µL per well. The cells were allowed to adhere for 24 h at 37 °C in a humidified incubator with 5% CO2. After incubation, the medium was removed and replaced with 100 µL of fresh medium. Serial dilutions of the compounds were prepared in separate plates and added to the cells, starting from a concentration of 100 µM with twofold serial dilutions (final concentration range: 100–0.19 µM). The cells were then incubated for 72 h at 37 °C. At the end of the incubation period, 20 µL of thiazolyl blue tetrazolium bromide (MTT) solution (5 mg/mL, Sigma) was added to each well. After 4 h of incubation at 37 °C, 100 µL of 10% sodium dodecyl sulfate (SDS) in 0.01 M HCl was added to solubilize the formazan crystals, and the plates were incubated overnight at 37 °C. Cell viability was assessed by measuring the optical density (OD) at 540/630 nm using a Multiscan EX ELISA reader (Thermo Labsystems, Cheshire, WA, USA).
(§4) The inhibitory concentration that reduced cell growth by 50% (IC50) was determined from the dose–response curves. The percent inhibition was calculated using the formula100 − ((OD_sample − OD_medium control)/(OD_cell control − OD_medium control)) × 100
(§5) Dose–response curves were generated by plotting the percent inhibition against the logarithm of the compound concentrations and fitted using Prism5 software (Version 6, GraphPad Software Inc., San Diego, CA, USA). The IC50 values were derived from four independent experiments conducted in parallel for each cell line and are reported as the mean values.

[2] = tested on: COLO 320/MDR-LRP multidrug-resistant human colonic adenocarcinoma cells; assay: MTT antiproliferative assay, COLO 320; format: cell-based; details: COLO 320 (multidrug-resistant), read-out: IC50 (µM) ± SD COLO 320
Protocol: as §1, §2, §3, §4, §5

[3] = tested on: CCD-19Lu non-cancerous human lung fibroblast cells; assay: MTT antiproliferative assay, CCD-19Lu; format: cell-based; details: 72 h, CCD-19Lu non-tumorigenic fibroblasts, read-out: IC50 (µM) ± SD CCD-19Lu
Protocol: as §1, §2, §3, §4, §5

[4] = tested on: multidrug-resistant COLO 320 cells; assay: Drug combination assay with doxorubicin (Chou-Talalay, MTT); format: cell-based, human; details: for Interaction: interaction with doxorubicin in COLO 320, class from CI; for CI at ED50 (combination index): combination with doxorubicin, COLO 320, 72 h, Chou-Talalay
Protocol: One promising approach involves the discovery of new bioactive natural products. To explore this, a chemosensitivity assay was conducted to examine the in vitro interactions between the isolated compounds and the antineoplastic agent doxorubicin, a substrate of P-glycoprotein (P-gp). A combination chemotherapy model was applied using human COLO 320 colon carcinoma cells. The combination index (CI), calculated according to the Chou–Talalay method, was used to evaluate drug–drug interactions, classifying them as synergistic (CI < 1), additive (CI = 1), or antagonistic (CI > 1) (Table 4).
The multidrug-resistant COLO 320 cell line was used to perform the drug combination assay. Doxorubicin (2 mg/mL, Teva Pharmaceuticals, Budapest, Hungary) was serially diluted horizontally, starting with 8.6 µM. The resistance modifier was subsequently diluted vertically, with the starting concentration determined based on the IC50 value. Doxorubicin was diluted horizontally in 100 µL, while the resistance modifiers were diluted vertically in 50 µL in the microtiter plate. The compounds and doxorubicin were prepared as separate dilutions. The cells were seeded at a density of 6 × 10^3 cells per well into 100 µL of medium and incubated for 24 h at 37 °C in a 5% CO2 atmosphere prior to treatment. After this period, the culture medium was removed, and 50 µL of fresh medium was added to each well, followed by the addition of 50 µL of the diluted compounds, resulting in a final volume of 200 µL per well. The plates were then incubated for 72 h at 37 °C under 5% CO2. The cell viability was assessed at the end of incubation using the MTT assay, as described previously. Drug interactions were analyzed using CompuSyn software (Version 1.00).
The dose–response curves for individual agents and their combinations were fitted to a linear model based on the median-effect equation to calculate the median effective dose (IC50) and the slope (m). The quality of the fit was evaluated using the linear correlation coefficient (r), and only data with r > 0.90 are reported. The extent of drug interaction was quantified using the combination index (CI), where CI ≈ 1 indicated an additive effect, CI < 1 signified synergy, and CI > 1 denoted antagonism.

SMILES | IC50 ([1]; Homo sapiens, COLO 205, 72 h) | IC50 ([2]; Homo sapiens, COLO 320, 72 h) | IC50 [3] | IC50 ([1]; 72 h) | IC50 ([2]; 72 h) | Interaction [4] | CI at ED50 (combination index) [4] | IC50 ([1]; Homo sapiens, 72 h) | IC50 ([2]; Homo sapiens, 72 h)
C=Cc1cc(O)cc2ccc3c(c12)C=CC(=O)C3(C)O (centres unmarked) [Compound 1, Tenuin A] | > 100 µM | > 100 µM | > 100 µM |  |  |  |  |  | 
C=Cc1cc2c(ccc3c(C)c(O)ccc32)cc1CO [Compound 2, tenuin B] | 48.4 µM | 38.3 µM | 96.08 ± 0.82 µM | 48.4 ± 1.03 µM | 38.3 ± 1.84 µM | very strong synergism (CI < 0.1 indicates very strong synergism) |  |  | 
C=Cc1cc(O)c(CO)c2c1-c1ccc(O)c(C)c1CC2 [Compound 3, 2,7-dihydroxy-8-hydroxymethyl-1-methyl-5-vinyl-9,10-dihydrophenanthrene] | > 100 µM | > 100 µM | 96.8 ± 1.79 µM |  |  |  |  |  | 
C=Cc1cc(O)cc2c1-c1cc(-c3cc4c(c(C)c3O)CCc3cc(O)cc(C(C)OC)c3-4)c(O)c(C)c1CC2 (centres unmarked) [Compound 4, tenuin D] | 7.6 ± 0.13 µM | 15.7 ± 2.2 µM | 9.93 ± 0.84 µM |  |  | synergism (0.3 < CI < 0.7, synergism) | 0.669 |  | 
C=Cc1cc(O)cc2c1-c1cc(-c3c(O)cc4c(c3C=C)-c3ccc(O)c(C)c3CC4)c(O)c(C)c1CC2 [Compound 5, 1,1′-dimethyl-5,5′-divinyl-9,9′,10,10′-tetrahydro-[6,3′-biphenanthrene]-2,2′,7,7′-tetraol] | 11.6 µM | 12 ± 1.58 µM | 13.8 ± 0.82 µM | 11.6 ± 0.22 µM |  | synergism (0.3 < CI < 0.7, synergism) | 0.433 |  | 
C=Cc1cc(O)cc2ccc3c(C)c(O)ccc3c12 [Compound 6, dehydroeffusol] |  |  | 58.17 ± 0.51 µM |  |  |  | 0.266 | 36.7 ± 2.29 µM | 35.6 ± 3.89 µM
C=Cc1c(C)c(O)cc2ccc3c(C)c(O)ccc3c12 [Compound 7, dehydrojuncusol] |  |  | 42.04 ± 0.39 µM |  |  |  | 0.117 | 28.16 ± 0.27 µM | 45.3 ± 2.78 µM
C=Cc1c(CO)ccc2c1ccc1c(C)c(O)ccc12 [Compound 9] | > 100 µM | 42.6 ± 2.98 µM | 75.3 ± 2.59 µM |  |  | moderate antagonism | 1.427 |  | 
C=Cc1cc(O)cc2c1-c1ccc(OC)c(C)c1CC2 [Compound 12] | 34.73 ± 0.1 µM | 25.5 ± 2.05 µM | 28.7 ± 1.11 µM |  |  | moderate antagonism | 1.347 |  | 
C=Cc1cc(CO)cc2c1-c1ccc(O)c(C)c1CC2 [Compound 13] | 37 ± 3.28 µM | 35.2 ± 4.68 µM | 69.3 ± 1.77 µM |  |  |  | 0.163 |  | 
C=Cc1cc(C=O)cc2c1-c1ccc(O)c(C)c1CC2 [Compound 14] | 57.2 ± 3.98 µM | 39.58 ± 0.27 µM | 66.4 ± 1.58 µM |  |  |  | 0.219 |  | 
C=Cc1cc(C(=O)O)cc2c1-c1ccc(O)c(C)c1CC2 [Compound 15] | 45.4 ± 2.16 µM | 47.6 ± 1.01 µM | > 100 µM |  |  | antagonism (1.45 < CI < 3.3, antagonism) | 1.927 |  | 
C=Cc1c(C)c(O)cc2c1-c1ccc(OC)c(C)c1CC2 [Compound 16, compressin A] | 35.8 ± 2.7 µM | 19.2 ± 0.32 µM | 28 ± 2.73 µM |  |  | antagonism (1.45 < CI < 3.3, antagonism) | 2.312 |  | 
C=Cc1cc(O)c(C)c2c1-c1ccc(O)c(C)c1CC2 [Compound 17, 2,7-dihydroxy-1,8-dimethyl-5-vinyl-9,10-dihydrophenanthrene] | 43.2 ± 3.82 µM | 35.1 ± 1.1 µM | 64.7 ± 3.36 µM |  |  | synergism (0.3 < CI < 0.7, synergism) | 0.670 |  | 
C=Cc1cc(O)cc2c1-c1cc(-c3cc4c(c(C)c3O)CCc3cc(O)cc(C=C)c3-4)c(O)c(C)c1CC2 [Compound 19, effususin A] | 10.9 µM | 17.3 ± 0.87 µM | 18.8 ± 0.06 µM | 10.9 ± 0.51 µM |  |  |  |  | 
COc1cccc2c1C(=O)c1c(O)c3c(c(O)c1C2=O)C[C@@](O)(C(=O)CO)C[C@@H]3O[C@H]1C[C@H](N)[C@H](O)[C@H](C)O1 [doxorubicin] | 0.53 ± 0.05 µM | 1.72 ± 0.5 µM | 1.03 ± 0.18 µM |  |  |  |  |  | 
